{
  "source": "ChEMBL document CHEMBL1157539",
  "about": "“Thousands of chemical starting points for antimalarial lead identification” (Nature, 2010)",
  "data": [
    {"system": "Plasmodium falciparum", "experiment": "GSK_TCMDC: Inhibition of Plasmodium falciparum 3D7 in whole erythrocytes, using parasite LDH activity as an index of growth.", "assay_type": "functional, organism-based", "settings": "Plasmodium falciparum, 3D7", "units": {"XC50": "nM"}, "values": [
      {"molecule": "CCN(CC)CCN(Cc1ccc(-c2ccc(C(F)(F)F)cc2)cc1)C(=O)Cn1c(CCc2cccc(F)c2F)nc(=O)c2cc(F)ccc21", "XC50": 826},
      {"molecule": "C=CC[C@H](NC(=O)c1ccc(NS(=O)(=O)c2ccc3nc(N)[nH]c(=O)c3c2)cc1)C(=O)OCCCC", "XC50": 154},
      {"molecule": "O=C(NCCNc1ccnc(NCc2ccc(F)cc2)n1)c1cc2ccccc2s1", "XC50": 695},
      {"molecule": "Cc1nn(-c2ccccc2)nc1C(=O)NC1CCN(CCNC(=O)c2ccc(Cl)c(Cl)c2)CC1", "XC50": 868},
      {"molecule": "Nc1nc(-c2ccc3c(Nc4ccc(F)c(Cl)c4)ccnc3c2)cs1", "XC50": 868},
      {"molecule": "CCC[C@@H]([C@@H](CC1CCCCC1)C(=O)N[C@H](C(=O)Nc1nccs1)[C@@H](C)OCc1ccccc1)N(O)C=O", "XC50": 78.2},
      {"molecule": "COc1ccc(OCCCCON2C(=N)N=C(N)NC2(C)C)cc1", "XC50": 3.2},
      {"molecule": "Fc1cccc(COc2ccc(Nc3ncnc4sc(C#CC5CCCCN5)cc34)cc2Cl)c1", "note": "(stereo unspecified)", "XC50": 540},
      {"molecule": "Fc1ccc(NC(S)=NN=Cc2ccccn2)cc1", "XC50": 775},
      {"molecule": "Cc1cccc2nc(-c3cccc(-c4cccc(NC(=O)C(C)CN(C)C)c4)c3)[nH]c12", "note": "(stereo unspecified)", "XC50": 413},
      {"molecule": "CNCc1ccc(CN(C)c2nc(N)c3cc(OC)c(OC)cc3n2)cc1", "XC50": 1030},
      {"molecule": "Cn1c(-c2ccccc2)cc2c3c(N)nc(N)nc3ccc21", "XC50": 888},
      {"molecule": "Cc1cccc(C)c1CNc1ccnc2cc(C#N)ccc12", "XC50": 684},
      {"molecule": "CC1CCCN(Cc2cc(Cl)cc(Cl)c2O)C1", "note": "(stereo unspecified)", "XC50": 933},
      {"molecule": "Cc1cc(NC(=O)NCCN2CCC(NC(=O)c3ccc(C(F)(F)F)cc3)CC2)c2ccccc2n1", "XC50": 413},
      {"molecule": "Nc1ncc(-c2ccc(Br)cc2)c(N)n1", "XC50": 920},
      {"molecule": "COCCCNC(=N)c1ccc(NC(=O)c2ccc(C(=O)Nc3ccc(C(=N)NCCCOC)cc3)cc2)cc1", "XC50": 45},
      {"molecule": "N#Cc1ccc(N(CCCO)Cc2ccccc2C(F)(F)F)cc1C(F)(F)F", "XC50": 978},
      {"molecule": "CCN(CC)C(=O)c1cnc(-c2ccccc2)nc1Oc1cccc(Cl)c1", "XC50": 1160},
      {"molecule": "Cc1nn(-c2ccccc2)c2c1C(c1ccc(C(C)C)cc1)N1C(=N2)N(Cc2ccccc2)c2ccccc21", "note": "(stereo unspecified)", "XC50": 776},
      {"molecule": "Cc1[nH]c2ccccc2c1C1=CCN(CCCCCC23CCCc4cccc(c42)NC3=O)CC1", "note": "(stereo unspecified)", "XC50": 253},
      {"molecule": "CCCc1c(C(=O)NC2CCC(CN3CCC(c4c[nH]c5ccccc45)CC3)CC2)cnn1-c1ccc(Cl)cc1", "note": "(stereo unspecified)", "XC50": 763},
      {"molecule": "O=C(Nc1cccc(CN2CCCN(Cc3cccc(Cl)c3)CC2)c1)c1ccc(-c2ccccc2)cc1", "XC50": 1230},
      {"molecule": "O=c1nc(C=Cc2ccc(Br)cc2)oc2ccccc12", "XC50": 1050},
      {"molecule": "CCCCCc1cc(O)c2c3c(c(=O)oc2c1)CN(C)CC3", "XC50": 121},
      {"molecule": "CC(=O)N(Cc1ccccc1-c1ccc(CNCCc2ccccc2)cc1)C1CCN(Cc2ccccc2)CC1", "XC50": 475},
      {"molecule": "COc1ccc(-c2nccc(NC(=N)NCc3ccccc3)n2)cc1", "XC50": 671},
      {"molecule": "NC(=O)c1ccc(-c2ccc3ccnc(N)c3c2)cc1", "XC50": 419},
      {"molecule": "CN1CCN(c2ccc(Nc3ncc(C#N)c(Nc4ccccc4C(N)=O)n3)cc2)CC1", "XC50": 39.4},
      {"molecule": "O=C(NCCN1CCOCC1)c1ccc(-c2ccc(CNCCCc3ccccc3)cc2)nc1", "XC50": 782},
      {"molecule": "CCC[C@@H]([C@@H](CC1CCCCC1)C(=O)NC(C(=O)Nc1nccs1)C(CC)c1ccccc1)N(O)C=O", "note": "(stereo partly specified)", "XC50": 689},
      {"molecule": "COc1ccc2nccc([C@@H](O)CN3CCC(NCc4cc5ccccc5[nH]4)CC3)c2c1", "XC50": 1100},
      {"molecule": "COc1ccc(F)cc1-c1ccc(C(=O)N2CCCN(c3ccc(C#N)cn3)CC2)cc1", "XC50": 112},
      {"molecule": "CC1(C)N=C(N)N=C(N)N1c1ccc(Br)cc1", "XC50": 9.2},
      {"molecule": "CC(=O)c1ccccc1C(=O)N1CCOc2ccc(C(O)C(c3ccccc3)c3ccccc3)cc2C1", "note": "(stereo unspecified)", "XC50": 905},
      {"molecule": "COc1cc(NCC(O)CNc2cc(Cl)nc3ccccc23)nc2ccccc12", "note": "(stereo unspecified)", "XC50": 416},
      {"molecule": "Cc1nc2ccc([N+](=O)[O-])cc2c(=O)n1OCc1ccccc1", "XC50": 208},
      {"molecule": "CCN(CC)/C(=N/C(=N)NCc1ccc(Cl)cc1)NCCCCCCN/C(=N\\C(=N)NCc1ccc(Cl)cc1)N(CC)CC", "XC50": 231},
      {"molecule": "CCN(CC)c1cc(C)c2cc(NC(=O)c3cc(=O)c4ccccc4o3)ccc2n1", "XC50": 224},
      {"molecule": "COc1c(C2=CCN(CCCCNC(=O)c3ccc(-c4ccc(C#N)cc4)cc3)CC2)c(C)cc2c1C(C)(C)CCC2(C)C", "XC50": 947},
      {"molecule": "Nc1cccc(CNCc2ccc(-c3cccc(-c4nc5ccccc5[nH]4)c3)cc2)c1", "XC50": 710},
      {"molecule": "O=C(C(=O)c1ccc(Nc2ccnc3cc(-c4ccccn4)ccc23)cc1)c1ccccc1", "XC50": 966},
      {"molecule": "Cc1ccc(O)cc1Nc1ccnc2cc(-c3ccncc3)ccc12", "XC50": 723},
      {"molecule": "COc1ccc(CCNCCCCCCNCCc2ccc(Cl)cc2)c(Cl)c1OC", "XC50": 825},
      {"molecule": "COCCNCc1cccc(-c2ccccc2CN(C(=O)c2ccc3c(c2)OCO3)c2ccc(OC)cc2)c1", "XC50": 1110},
      {"molecule": "COc1ccc(CCn2c(=N)c(C(=O)NCc3ccccc3)cc3c(=O)n4cccc(C)c4nc32)cc1", "XC50": 339},
      {"molecule": "CN(C)CCNCc1ccc(-c2ccc(-c3nc4cc(F)ccc4[nH]3)cc2)cc1", "XC50": 474},
      {"molecule": "CC1CN(Cc2ccc(-c3ccc(-c4nc5cc(F)ccc5[nH]4)cc3)cc2)CC(C)O1", "note": "(stereo unspecified)", "XC50": 564},
      {"molecule": "Cc1cccc(CN2CCC(CNC(=O)c3cc4c(-c5ccccc5F)nn(C)c4s3)CC2)c1", "XC50": 1090},
      {"molecule": "COc1ccc(CC2(c3ccc(F)cc3)N=C(N)N(CCCc3ccc4c(c3)OCO4)C2=O)cc1", "note": "(stereo unspecified)", "XC50": 739},
      {"molecule": "CCC[C@@H]([C@@H](CC1CCCCC1)C(=O)N[C@H](C(=O)Nc1nccs1)C(C)(C)SCCNC(=O)OCc1ccccn1)N(O)C=O", "XC50": 162},
      {"molecule": "CCn1cc(C=C2Oc3c(ccc(O)c3CN3CCCCC3C)C2=O)c2ccccc21", "note": "(stereo unspecified)", "XC50": 1020},
      {"molecule": "CS(=O)(=O)CCNCc1nc(-c2ccc3c(Nc4ccc(F)c(O)c4)ccnc3c2)cs1", "XC50": 820},
      {"molecule": "COc1ccc(-c2ccc(NC(=O)c3ccc(C#N)cc3)c(F)c2)cc1CN(C)CCN(C)C", "XC50": 974},
      {"molecule": "CCN(CC)CCNc1nccc(N(C)c2ccc(NC(=O)Nc3cc(C(F)(F)F)ccc3F)cc2)n1", "XC50": 549},
      {"molecule": "O=C(Nc1ccc(Cl)cc1)Nc1ccc2c(c1)N1CCN=C1S2", "XC50": 592},
      {"molecule": "COc1ccc(C(=O)CCc2ccc(O)cc2)cc1", "XC50": 483},
      {"molecule": "S=C(NCCc1ccccc1)Nc1ccc2ncsc2c1", "XC50": 1400},
      {"molecule": "Cc1cc2nc(-c3ccc(/C=C/C(=O)NC4CCCCC4)cc3)[nH]c2cc1C", "XC50": 1010},
      {"molecule": "COc1ccc2nccc([C@@H](O)CN3CCC(NC(=O)C(=O)c4c[nH]c5c(C)cccc45)CC3)c2c1", "XC50": 307},
      {"molecule": "CCn1cnc2c(N3CCCS3(=O)=O)cc(C(=O)N[C@@H](Cc3ccccc3)[C@H](O)CNC(C)(C)c3cccc(C(F)(F)F)c3)cc21", "XC50": 227},
      {"molecule": "O=C(Nc1ccc(Cl)cc1)Nc1cccc(-c2cccc(-c3nc4cc(F)ccc4[nH]3)c2)c1", "XC50": 220},
      {"molecule": "O=C(CSc1nc(-c2ccccc2Cl)ns1)Nc1cccc(F)c1", "XC50": 1110},
      {"molecule": "COc1ccc(Nc2nc(NCc3cccc(NS(C)(=O)=O)c3)cc(-c3ccc(OC)cc3)n2)cc1", "XC50": 1220},
      {"molecule": "O=C(Nc1ccc(Oc2ccccc2)cc1)N1CCC(CN2CCC(c3c[nH]c4ccccc34)CC2)CC1", "XC50": 606},
      {"molecule": "O=C(Nc1ccc(SC(F)(F)F)cc1)Nc1ccc(Cl)c(Cl)c1", "XC50": 909},
      {"molecule": "CC1(CCc2ccccc2)N=C(Nc2ccc(Cl)cc2)N=C(N)C1c1ccc(Cl)c(Cl)c1", "note": "(stereo unspecified)", "XC50": 221},
      {"molecule": "COc1ccc2nc(-c3ccc(C(=O)NCCCN4CCN(c5cc(Cl)ccc5OC)CC4)cc3OC)[nH]c2c1", "XC50": 872},
      {"molecule": "CN1CCCC1CCNCc1cccc(-c2cnc(N3CCCC(C)(C)C3)nc2)c1", "note": "(stereo unspecified)", "XC50": 927},
      {"molecule": "N#Cc1cccc(CN2CCCN(c3ccc(NC(=O)c4cccs4)cc3)CC2)c1", "XC50": 809},
      {"molecule": "CC1(C)N=C(N)N=C(N)N1c1ccc(Cl)cc1", "XC50": 31.1}
    ]}
  ]
}
